# Test results: PMC10381486, “Hydantoanabaenopeptins from Lake Kinneret Microcystis Bloom, Isolation, and Structure Elucidation of the Possible Intermediates in the Anabaenopeptins Biosynthesis” (Marine Drugs, 2023)
# Experiments:
# [1] = molecular target: chymotrypsin (Bos taurus, UniProt P00766); experiment: Chymotrypsin inhibition assay (SGGPNA substrate, 96-well plate); assay type: biochemical; conditions: Tris buffer pH 7.5, 5 min pre-incubation at 37 °C, kinetic absorbance at 405 nm over 30 min
# Method: […] Assays were performed in a 96-well plate format.
# The assay was performed in a Tris buffer (0.6 gr TRIS HCl/100 mL H2O, pH 7.5). The enzyme and the substrate Suc-Gly-Gly-phenylalanine-p-nitroanilide (SGGPNA) were dissolved in the buffer at a concentration of 1 mg/mL. To each well were added 100 μL of buffer, 10 μL of enzyme, and 10 μL of sample. Then, the plate was placed in the spectrophotometer for a 5 min incubation at 37 °C. Thereafter, to each well, 100 μL of substrate solution was added, and the plate was placed in the spectrophotometer for the kinetic measurement of the absorbance intensity over 30 min at a wavelength of 405 nm.
# [2] = molecular target: T1, trypsin (Bos taurus, UniProt P00760); experiment: Trypsin inhibition assay (BAPNA substrate, 96-well plate); assay type: biochemical; conditions: Tris buffer pH 7.5, 5 min pre-incubation at 37 °C, kinetic absorbance at 405 nm over 30 min
# T1 construct: gene PRSS1
# T1 sequence (P00760 24-246): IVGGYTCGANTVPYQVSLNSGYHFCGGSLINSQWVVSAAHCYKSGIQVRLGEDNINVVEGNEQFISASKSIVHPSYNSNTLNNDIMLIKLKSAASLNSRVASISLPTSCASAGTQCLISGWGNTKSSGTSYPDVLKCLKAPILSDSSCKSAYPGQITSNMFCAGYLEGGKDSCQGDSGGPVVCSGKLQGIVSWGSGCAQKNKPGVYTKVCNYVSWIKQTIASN
# Method: The samples for biological assays were dissolved in DMSO at a concentration of 1 mg/mL and were tested for inhibition of the proteases at a single concentration: 1 […]. Assays were performed in a 96-well plate format.
# The assay was performed in a Tris buffer (0.6 g Tris HCl in 100 mL H2O, pH 7.5). Benzoyl-L-arginine-p-nitroanilide hydrochloride (BAPNA), the trypsin substrate, was dissolved at 1 mg/mL in 1:9 DMSO/buffer. The enzyme was dissolved in buffer at 1 mg/mL. To each well were added 100 μL of buffer, 10 μL of enzyme, and 10 μL of sample. The plate was placed in the spectrophotometer at 37 °C. After 5 min, 100 μL of substrate solution was added to each well, and the plate was placed in the spectrophotometer for the kinetic measurement of the absorbance intensity over 30 min at a wavelength of 405 nm.
substance,measurement,setting,value
Hydanto-oscillamide Y [Compound 4],inhibition of the serine protease chymotrypsin,[1]; single concentration 54.2 μM,nonactive
Hydantoanabaenopeptin B [Compound 2],inhibition of the serine protease trypsin,[2]; single concentration 55.6 μM,nonactive
"Dht-CO-cyclo-[Lys-Val-Hty-NMeAla-Phe] (lariat or depsi) [Compound 5, ^1[Dht]-anabaenopeptin A, new anabaenopeptin with dihomotyrosine at position 1]",inhibition of the serine protease chymotrypsin,[1]; single concentration 53.3 μM,nonactive
"Phe, NMeAla, Hty, Ile, Lys, and Arg (lariat or depsi) [Compound 3, Hydantoanabaenopeptin F, hydantoin derivative of anabaenopeptin F isolated from Lake Kinneret Microcystis bloom]",inhibition of the serine protease trypsin,[2]; single concentration 54.6 μM,nonactive
"cyclo-(Phe-NMeAla-Hty-Val-Lys-ε-NH)- (lariat or depsi) [Compound 1, Hydantoanabaenopeptin A, hydantoin derivative of anabaenopeptin A isolated from Lake Kinneret Microcystis bloom]",inhibition of the serine protease chymotrypsin,[1]; single concentration 55.1 μM,nonactive
"hydanto-Dht-[Lys-Val-Hty-NMeAla-Phe] (lariat or depsi) [Compound 6, ^1[Dht]-hydantoanabaenopeptin A, hydantoin derivative of 1[Dht]-anabaenopeptin A]",inhibition of the serine protease chymotrypsin,[1]; single concentration 53.3 μM,nonactive
